# Measured values published in US12264164B2, “Method of treatment of symptoms of menopause” (KaNDy Therapeutics Limited, priority 2018, dated 2025).
# System: post-menopausal women experiencing moderate to severe vasomotor symptoms
# Experiment: Efficacy assessments in the Phase 1b/2 study
# Assay type: in vivo, human
# Settings: hard gelatin drug product, 150 mg once daily (three 50 mg capsules), doses tested 50-300 mg for 14 days
# Experimental: There were 13 or 15 subjects per dose group.
# Repeat once-a-day dosing of 150 mg Compound A gave a geometric mean exposure AUC0-24 5164 ng.hr/mL of the drug at Day 14.
compound,measurement,value
"Cc1cc(F)ccc1-c1cc(N2C[C@H]3COCCN3C[C@H]2CO)ncc1N(C)C(=O)C(C)(C)c1cc(C(F)(F)F)cc(C(F)(F)F)c1 [Compound A, 2-[3,5-Bis(trifluoromethyl)phenyl]-N-{4-(4-fluoro-2-methylphenyl)-6-[(7S,9aS)-7-(hydroxymethyl)hexahydropyrazino[2,1-c][1,4]oxazin-8(1H)-yl]-3-pyridinyl}-N,2-dimethylpropanamide]",efficacy assessments,maximum efficacy
